This note sets out measurements from ChEMBL document CHEMBL3046894, “Synthesis and Herbicidal Activity of Pyrimidinyl Salicylic and Thiosalicylic Acids” (J Pestic Sci, 1996).

Data set [1] deals with Echinochloa crus-galli. As to the kind of experiment: Pre-emergence herbicidal activity against Echinochloa crus-galli (barnyard grass) assessed as mortality at 6.3 g a.i/10 a. In kind it is functional. The conditions noted are these: Echinochloa crus-galli, pre-emergence.
Data set [2] deals with Ipomoea lacunosa. Kind of data set: Post-emergence herbicidal activity against Ipomoea lacunosa assessed as mortality at 1.6 g a.i/10 a applied 11 days after germination as foliar spray. The following applies: 264 h. It is filed as functional.
A short description of data set [3]: Pre-emergence phytotoxicity against Gossypium hirsutum (cotton) assessed as mortality at 6.3 g a.i/10 a. In kind it is organism-based. The conditions noted are these: in vivo, 6.3 g a.i/10 a.
Data set [4] deals with Glycine max. Kind of data set: (§1) Pre-emergence phytotoxicity against Glycine max (soybean) assessed as mortality at 1.6 g a.i/10 a. It is filed as organism-based. The following applies: in vivo, other.
The subject of data set [5] is Glycine max. Kind of data set: (§2) Pre-emergence phytotoxicity against Glycine max (soybean) assessed as mortality at 6.3 g a.i/10 a. In kind it is organism-based. The conditions noted are these: in vivo, other.
Data set [6] can be described thus: (§3) Pre-emergence phytotoxicity against Zea mays (maize) assessed as mortality at 1.6 g a.i/10 a. In kind it is organism-based. The following applies: in vivo, 1.6 g a.i/10 a, read-out: mortality.
For data set [7], the system named is Zea mays. As to the kind of experiment: Pre-emergence phytotoxicity against Zea mays (maize) assessed as mortality at 6.3 g a.i/10 a. It is filed as organism-based. The following applies: in vivo, other.
Data set [8] concerns Gossypium hirsutum. Kind of data set: (§4) Post-emergence phytotoxicity against Gossypium hirsutum (cotton) assessed as mortality at 1.6 g a.i/10 a applied 11 days after germination as foliar spray. The following applies: in vivo, other, 264 h. In kind it is organism-based.
In data set [9] the test system is Gossypium hirsutum. Kind of data set: Post-emergence phytotoxicity against Gossypium hirsutum (cotton) assessed as mortality at 6.3 g a.i/10 a applied 11 days after germination as foliar spray. In kind it is organism-based. The following applies: in vivo, other, 264 h.
Data set [10] has as its system Glycine max. As to the kind of experiment: Post-emergence phytotoxicity against Glycine max (soybean) assessed as mortality at 1.6 g a.i/10 a applied 11 days after germination as foliar spray. In kind it is organism-based. The conditions noted are these: in vivo, other, 264 h.
For data set [11], the system named is Zea mays. As to the kind of experiment: Post-emergence phytotoxicity against Zea mays (maize) assessed as mortality at 1.6 g a.i/10 a applied 11 days after germination as foliar spray. It is filed as organism-based. The following applies: in vivo, other, 264 h.
Data set [12] concerns Zea mays. As to the kind of experiment: Post-emergence phytotoxicity against Zea mays (maize) assessed as mortality at 6.3 g a.i/10 a applied 11 days after germination as foliar spray. In kind it is organism-based. The conditions noted are these: in vivo, other, 264 h.
The test system of data set [13] is Xanthium strumarium. As to the kind of experiment: Post-emergence herbicidal activity against Xanthium strumarium (cocklebur) assessed as mortality at 1.6 g a.i/10 a applied 11 days after germination as foliar spray. In kind it is functional. The following applies: 264 h.
Data set [14] relates to Cyperus iria. Kind of data set: Pre-emergence herbicidal activity against Cyperus iria assessed as growth inhibition at 25 g a.i/10 a. In kind it is functional, organism-based.
In data set [15] the test system is Chenopodium album. As to the kind of experiment: Pre-emergence herbicidal activity against Chenopodium album assessed as growth inhibition at 25 g a.i/10 a. In kind it is functional, organism-based.
Data set [16] has as its system Amaranthus retroflexus. Kind of data set: Pre-emergence herbicidal activity against Amaranthus retroflexus assessed as growth inhibition at 25 g a.i/10 a. In kind it is functional, organism-based.
Data set [17] has as its system Persicaria nodosa. As to the kind of experiment: Pre-emergence herbicidal activity against Persicaria nodosa assessed as growth inhibition at 25 g a.i/10 a. In kind it is functional, organism-based.
Data set [18] relates to Digitaria sanguinalis. Kind of data set: Pre-emergence herbicidal activity against Digitaria sanguinalis (hairy crabgrass) assessed as growth inhibition at 25 g a.i/10 a. In kind it is functional, organism-based.
The test system of data set [19] is Echinochloa crus-galli. Kind of data set: Pre-emergence herbicidal activity against Echinochloa crus-galli (barnyard grass) assessed as growth inhibition at 25 g a.i/10 a. In kind it is functional, organism-based.
Data set [20] relates to Cyperus iria. Kind of data set: Post-emergence herbicidal activity against Cyperus iria assessed as growth inhibition at 25 g a.i/10 a applied 11 days after germination as foliar spray. In kind it is functional, organism-based.
For data set [21], the system named is Chenopodium album. As to the kind of experiment: Post-emergence herbicidal activity against Chenopodium album assessed as growth inhibition at 25 g a.i/10 a applied 11 days after germination as foliar spray. It is filed as functional, organism-based.
For data set [22], the system named is Amaranthus retroflexus. As to the kind of experiment: Post-emergence herbicidal activity against Amaranthus retroflexus assessed as growth inhibition at 25 g a.i/10 a applied 11 days after germination as foliar spray. In kind it is functional, organism-based.
Data set [23] has as its system Persicaria nodosa. As to the kind of experiment: Post-emergence herbicidal activity against Persicaria nodosa assessed as growth inhibition at 25 g a.i/10 a applied 11 days after germination as foliar spray. It is filed as functional, organism-based.
In data set [24] the test system is Digitaria sanguinalis. As to the kind of experiment: Post-emergence herbicidal activity against Digitaria sanguinalis (hairy crabgrass) assessed as growth inhibition at 25 g a.i/10 a applied 11 days after germination as foliar spray. In kind it is functional, organism-based.
The test system of data set [25] is Echinochloa crus-galli. As to the kind of experiment: Post-emergence herbicidal activity against Echinochloa crus-galli (barnyard grass) assessed as growth inhibition at 25 g a.i/10 a applied 11 days after germination as foliar spray. In kind it is functional, organism-based.
Data set [26] deals with Xanthium strumarium. Kind of data set: Pre-emergence herbicidal activity against Xanthium strumarium (cocklebur) assessed as mortality at 1.6 g a.i/10 a. It is filed as functional.
In data set [27] the test system is Xanthium strumarium. As to the kind of experiment: Pre-emergence herbicidal activity against Xanthium strumarium (cocklebur) assessed as mortality at 6.3 g a.i/10 a. In kind it is functional.
Data set [28] has as its system Ipomoea lacunosa. Kind of data set: Pre-emergence herbicidal activity against Ipomoea lacunosa assessed as mortality at 1.6 g a.i/10 a. In kind it is functional.
In data set [29] the test system is Ipomoea lacunosa. As to the kind of experiment: Pre-emergence herbicidal activity against Ipomoea lacunosa assessed as mortality at 6.3 g a.i/10 a. In kind it is functional.
The subject of data set [30] is Abutilon theophrasti. As to the kind of experiment: Pre-emergence herbicidal activity against Abutilon theophrasti (velvetleaf) assessed as mortality at 1.6 g a.i/10 a. It is filed as functional. The following applies: Abutilon theophrasti, pre-emergence.
Data set [31] has as its system Echinochloa crus-galli. Kind of data set: Pre-emergence herbicidal activity against Echinochloa crus-galli (barnyard grass) assessed as mortality at 1.6 g a.i/10 a. It is filed as functional. The following applies: Echinochloa crus-galli, pre-emergence.
Data set [32] relates to Gossypium hirsutum. As to the kind of experiment: Pre-emergence phytotoxicity against Gossypium hirsutum (cotton) assessed as mortality at 1.6 g a.i/10 a. It is filed as organism-based. The conditions noted are these: in vivo, other.
The nature of data set [33]: as §1. In kind it is organism-based. The following applies: in vivo, 1.6 g a.i/10 a, read-out: Activity.
Data set [34] in a line: as §2. In kind it is organism-based. The following applies: in vivo, 6.3 g a.i/10 a, read-out: Activity.
Data set [35] relates to Zea mays. The description is as §3. It is filed as organism-based. The following applies: in vivo, other.
A short description of data set [36]: as §4. In kind it is organism-based. The following applies: in vivo, 1.6 g a.i/10 a.
For data set [37], the system named is Glycine max. As to the kind of experiment: Post-emergence phytotoxicity against Glycine max (soybean) assessed as mortality at 6.3 g a.i/10 a applied 11 days after germination as foliar spray. It is filed as organism-based. The following applies: in vivo, other, 264 h.
Data set [38] concerns Echinochloa crus-galli. As to the kind of experiment: Post-emergence herbicidal activity against Echinochloa crus-galli (barnyard grass) assessed as mortality at 6.3 g a.i/10 a applied 11 days after germination as foliar spray. In kind it is functional. The conditions noted are these: 264 h.
The mark [39] stands for this setting: Xanthium strumarium, pre-emergence.
[40] abbreviates: Ipomoea lacunosa, pre-emergence.

The structures appear in SMILES notation. Active and inactive are the calls of the source. The calls are words filed in the database; no cut-off is given here.

For the compound `COc1cc(OC)nc(Oc2cccc([N+](=O)[O-])c2C(=O)O)n1`, the mortality at 63 g/ha in data set [1], in data set [27] (setting [39]) and in [29] (setting [40]) was less than 5% throughout. For the same compound, the mortality at 16 g/ha in data set [2], in data set [13], in data set [26] (setting [39]), in data set [28] (setting [40]), in data set [30] and in data set [31] was less than 5% throughout. Besides, the mortality in data set [3] (read-out: mortality) and in [6] was less than 5% throughout. For the same compound, the Activity entry is given as “Non-toxic” in data set [4]; “Non-toxic” in data set [5]; “Non-toxic” in data set [7]; “Non-toxic” in data set [8]; “Non-toxic” in data set [9]; “Toxic” in data set [10]. Further, the Activity entry in data set [11] is “Non-toxic”; in [12] it was “Toxic”. Also, the “growth inhibition (GI)” value in data set [14], in data set [15], in data set [16], in [17], in data set [20] and in data set [21] was “Active” throughout. For the same compound, the “growth inhibition (GI)” value in data set [22], in [23] and in data set [25] was “Active” each time. Moreover, the “growth inhibition (GI)” value in data set [18], in [19] and in data set [24] was “inactive” each time.
`COc1cc(OC)nc(Sc2cccc(C(C)=O)c2C(=O)O)n1`: the mortality in [3] (read-out: Activity), in data set [33] and in data set [34] was less than 50% throughout. Moreover, the Activity in data set [32] is less than 50%; in data set [35] it was “Non-toxic”; in data set [7] it was “Toxic”; in data set [9], “Non-toxic”; in data set [37], “Non-toxic”; in data set [10], “Non-toxic”. The Activity result in [11] was “Toxic”; in [26] it was less than 50%; in data set [27], less than 50%; in data set [28], less than 50%; in [29], less than 50%. Further, the mortality at 264 h in [36] was less than 5%. Also, the mortality at 63 g/ha in data set [38] is more than 90%.
